According to patent US5411965A, “Use of delta opioid receptor antagonists to treat cocaine abuse” (Arizona Board of Regents, priority 1993, dated 1995):
“Also recorded” adds a separate entry of the source.

Experiments:
[1] = cited from earlier work
[2] = biological target: mu opioid receptor; conditions: agonist morphine in GPI; antagonist 100 or 200 nM, 15 min; read-out: Ke; cited from earlier work
[3] = biological target: kappa opioid receptor; conditions: agonist ethylketazocine in GPI; antagonist 100 or 200 nM, 15 min; read-out: Ke, EK; cited from earlier work
[4] = assay type: in vivo, rats
From the text: When rats are fixed with chronically indwelling bipolar electrodes for electrical stimulation of the medial forebrain bundle, they will press levers for brief durations of stimulation. The higher the intensity of stimulation, the greater the pressing. […] These relationships plus extant theory provide the rationale for using pressing for brain stimulation as a means of assessing the reinforcing effects of drugs and assessing which drugs might affect another drug's reinforcing effects.
The particulars of the procedures used herein are briefly summarized. Further information is in Reid (cited above) and Reid et al. (Life Sciences, 52, PL67-71 (1993)). Rats were fixed with chronically indwelling bipolar electrodes. Using standard stereotaxic methods, which includes full anesthesia, the tips of the electrode were aimed to stimulate the medial forebrain bundle as it traverses the lateral hypothalamus. With the skull held in a stereotaxic instrument so that a plane between bregma and lamba was perpendicular to the shaft of the electrode, the following stereotaxic coordinates were used: 3.5 mm posterior to brema, 1.6 mm lateral to the midline, and 8.6 mm below the surface of the skull.
The apparatus of these tests was a Skinner box (24×30 ×38 cm) equipped with a lever (2.5×2 cm). Each box was fixed with electrical leads and a slip-ring apparatus that allowed the rat to be connected to the electrical stimulator for intracranial stimulation, but allowed the rat to move freely in the box.
Upon full recovery from surgery, rats were trained to press a lever in the Skinner box for electrial stimulation of the brain. The electrical stimulation was 60 Hz sine waves of 0.3 sec. The maximum intensity used was of 50 microAmps. Each lever press delivered one 0.3-sec of brain stimulation.
Just after rats learned to press the lever, the intensity of the brain stimulation was varied. Three intensities were chosen. The lowest intensity was one that was barely sufficient to sustain lever pressing. The highest intensity sustained high rates of pressing, but not the highest rates that a rat can achieve. The medium intensity was about midway between the lowest and the highest. Once a set of intensities were established for each rat, those intensities remained fixed throughout the balance of testing. […] Each rat was under a daily regimen. They were allowed to press for each of three intensities of brain stimulation for 10 minutes. […] They were allowed to press the lever under this daily regimen under level-pressing rates became stable. Then, drugs (or placebos) were administered.
The methods of Example 5 were nearly the same as those of Example 4. Rats were fixed, using standard procedures, with chronically indwelling electrodes for stimulation of the medial forebrain bundle. Subsequent to recovery from surgery, they were trained to press for brain stimulation. After each learned to press, they were put on a daily regimen. That daily regimen involved pressing for 5 min at a high intensity of brain stimulation, followed by 5-minute sessions with medium, low, low, medium and then high intensity. Intensities were set for each rat so that pressing rate for the low intensity was rather slow (the low intensity being near lower threshold for maintaining pressing), pressing for the high intensity was at a high rate, and pressing for the medium intensity was between the rate for low and high intensity. Pressing at each intensity was averaged for an index of rat's responsiveness at that intensity.

[5] = biological target: delta opioid receptor (Mus musculus, UniProt P32300); experiment: Antagonism of DADLE in the mouse vas deferens (MVD) preparation; assay type: cell-based; conditions: in words
Sequence of delta opioid receptor (P32300 whole entry): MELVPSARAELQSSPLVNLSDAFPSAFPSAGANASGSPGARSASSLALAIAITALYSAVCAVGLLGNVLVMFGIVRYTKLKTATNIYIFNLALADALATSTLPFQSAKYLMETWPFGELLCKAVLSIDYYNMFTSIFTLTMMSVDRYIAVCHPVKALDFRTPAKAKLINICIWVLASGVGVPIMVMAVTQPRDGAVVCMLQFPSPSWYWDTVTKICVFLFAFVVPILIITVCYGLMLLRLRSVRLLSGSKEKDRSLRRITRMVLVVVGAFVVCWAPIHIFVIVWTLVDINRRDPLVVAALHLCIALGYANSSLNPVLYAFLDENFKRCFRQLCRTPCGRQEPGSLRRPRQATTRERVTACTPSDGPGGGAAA
Experimental: Furthermore, the MVD responds selectively to delta opioids.
(§1) 2. Mouse Vas Deferens (MVD). […] The organ bath was maintained at 37° C.

[6] = system: mouse vas deferens (MVD) and guinea pig ileum (GPI); experiment: Agonist activity in MVD and GPI preparations; assay type: cell-based; conditions: in words
Experimental: 1. Guinea Pig Ileal Longitudinal Muscle (GPI). Ilea from guinea pigs were taken approximately 10 cm from the ileocaecal junction, and a strip of longitudinal muscle with the myenteric plexus attached was prepared by method of Rang et al., Brit. J. Pharmacol., 22, 356 (1964), the disclosure of which is incorporated by reference herein. A 1 cm portion of this strip was then mounted between two platinum electrodes placed in a 10 ml organ bath and connected to an isometric transducer. Contractions were recorded on a polygraph. […] The organ bath was maintained at 36°-37° C. The longitudinal muscle strip was allowed to equilibrate with continuous stimulation for a minimum of 90 min.
as §1

| SMILES | Kb [2] [nM] | Kb [3] [nM] | further results |
| --- | --- | --- | --- |
| O=C1CC[C@@]2(O)[C@H]3Cc4ccc(O)c5c4[C@@]2(CCN3CC2CC2)[C@H]1O5 [naltrexone] | – | – | conditioned place aversion ([1]; given alone, literature): condition place aversions; effect on MDMA's conditioned place preference ([1]; rat, in vivo): attenuated but not blocked; effect on cocaine's conditioned place preference ([1]; rat, in vivo): attenuate cocaine's reinforcing properties |
| Oc1ccc2c3c1O[C@H]1c4[nH]c5c(F)cccc5c4C[C@@]4(O)[C@@H](C2)N(CC2CC2)CC[C@]314 [Compound 11] | 5.3 | > 330 | – |
| O=C1C(=Cc2ccccc2)C[C@@]2(O)[C@H]3Cc4ccc(O)c5c4[C@@]2(CCN3CC2CC2)[C@H]1O5 [BNTX, 7-benzylidenenaltrexone] | – | – | pressing for brain stimulation, BNTX plus cocaine ([4]; rat, in vivo): reduced cocaine's (5 mg/kg) facilitation of pressing for rewarding brain stimulation in a fashion similar to the reduction observed for NTI; also recorded: extraordinarily effective in blocking cocaine's salient effects |
| Oc1ccc2c3c1O[C@H]1c4[nH]c5cccc(F)c5c4C[C@@]4(O)[C@@H](C2)N(CC2CC2)CC[C@]314 [Compound 10] | > 125 | > 170 | – |
| CNC(C)Cc1ccc2c(c1)OCO2 (centres unmarked) [MDMA, N-monomethyl-3,4-methylenedioxyphenylisopropylamine, reference compound] | – | – | mean presses at High intensity, MDMA plus Placebo ([4]; High intensity of intracranial stimulation, six rats): 922 presses per ten minutes; mean presses at Low intensity, MDMA plus Placebo ([4]; Low intensity of intracranial stimulation, six rats): 288 presses per ten minutes; mean presses at Medium intensity, MDMA plus Placebo ([4]; Medium intensity of intracranial stimulation, six rats): 563 presses per ten minutes; pressing for brain stimulation, MDMA alone ([4]; in words): increased pressing; average increase in pressing, MDMA ([4]; low intensity, factor): four times; conditioned place preference ([1]; drug alone, literature): produces a conditioned place preference among rats |
| COc1ccc2[nH]c3c(c2c1)C[C@@]1(O)[C@H]2Cc4ccc(O)c5c4[C@@]1(CCN2CC1CC1)[C@H]3O5 [Compound 4] | 63 | 12.6 | – |
| Oc1ccc2c3c1O[C@H]1c4nc5ccccc5cc4C[C@@]4(O)[C@@H](C2)N(CC2CC2)CC[C@]314 [Compound 17] | 11.3 | 16.3 | delta antagonist potency and selectivity [5]: A similar relationship was observed |
| Cn1c2c(c3ccccc31)C[C@@]1(O)[C@H]3Cc4ccc(O)c5c4[C@@]1(CCN3CC1CC1)[C@H]2O5 [Compound 2] | 12.5 | 22.2 | – |
| Cc1ccc2[nH]c3c(c2c1)C[C@@]1(O)[C@H]2Cc4ccc(O)c5c4[C@@]1(CCN2CC1CC1)[C@H]3O5 [Compound 5] | > 160 | > 250 | – |
| CC(N)Cc1ccccc1 (centres unmarked) [Amphetamine, phenylisopropylamine, reference compound] | – | – | pressing for brain stimulation, amphetamine alone ([4]; rat, in vivo): produced an increment in pressing; also recorded: produced increased pressing compared to pressing under the influence of placebo |
| Oc1ccc2c3c1O[C@H]1c4oc5ccccc5c4C[C@@]4(O)[C@@H](C2)N(CC2CC2)CC[C@]314 [Compound 8, 17-(cyclopropylmethyl)-6,7-dehydro-3,14β-dihydroxy-4,5α-epoxy-6,7-2',3'-benzo[b]furanomorphinan] | 30.8 | 50.8 | delta antagonist potency and selectivity [5]: less potent and less selective than 1 as a delta antagonist, nevertheless retains substantial delta antagonist activity |
| Oc1ccc2c3c1O[C@H]1c4nc5ccccc5nc4C[C@@]4(O)[C@@H](C2)N(CC2CC2)CC[C@]314 [Compound 16] | 6.1 | 13.4 | delta antagonist potency and selectivity [5]: A similar relationship was observed |
| Oc1ccc2[nH]c3c(c2c1)C[C@@]1(O)[C@H]2Cc4ccc(O)c5c4[C@@]1(CCN2CC1CC1)[C@H]3O5 [Compound 9] | 27.2 | 68.5 | – |
| COc1cccc2c3c([nH]c12)[C@@H]1Oc2c(O)ccc4c2[C@@]12CCN(CC1CC1)[C@H](C4)[C@]2(O)C3 [Compound 14] | 35 | – | – |
| Oc1ccc2c3c1O[C@H]1c4[nH]c5ccc(F)cc5c4C[C@@]4(O)[C@@H](C2)N(CC2CC2)CC[C@]314 [Compound 3] | 61.7 | 46.2 | – |
| CN1CC[C@]23c4c5ccc(O)c4O[C@H]2c2[nH]c4ccccc4c2C[C@@]3(O)[C@H]1C5 [Compound 7] | – | – | antagonism of the effect of the delta agonist DADLE [5]: inactive; agonist activity [6]: exhibited partial agonist activity |
| Cc1cccc2c3c([nH]c12)[C@@H]1Oc2c(O)ccc4c2[C@@]12CCN(CC1CC1)[C@H](C4)[C@]2(O)C3 [Compound 13] | 19.1 | > 330 | – |
| O=[N+]([O-])c1ccc2[nH]c3c(c2c1)C[C@@]1(O)[C@H]2Cc4ccc(O)c5c4[C@@]1(CCN2CC1CC1)[C@H]3O5 [Compound 6] | 92 | ≥ 200 | – |
